Data as given in US20080242649A1, “New Combination 665” (priority 2007, published 2008).
Structures can show the parent of a compound that is named as a salt.

What was measured:
Adrenergic β2 = molecular target: T1, Adrenergic β2 (Homo sapiens, UniProt P07550); assay: Adrenergic β2 mediated cAMP production in H292 cells (AlphaScreen); type: cell-based
T1 construct: Adherent H292 cells were removed from tissue culture flasks; endogenous in cells; host or cells: H292 cells
Method: Adrenergic β2 mediated cAMP production
H292 cells were grown in 225 cm2 flasks incubator at 37° C., 5% CO2 in RPMI medium containing, 10% (v/v) FBS (foetal bovine serum) and 2 mM L-glutamine.
Adherent H292 cells were removed from tissue culture flasks by treatment with Accutase™ cell detachment solution for 15 minutes. Flasks were incubated for 15 minutes in a humidified incubator at 37° C., 5% CO2. Detached cells were re-suspended in RPMI media (containing 10% (v/v) FBS and 2 mM L-glutamine) at 0.05×10^6 cells per mL. 5000 cells in 100 μL were added to each well of a tissue-culture-treated 96-well plate and the cells incubated overnight in a humidified incubator at 37° C., 5% CO2. The culture media was removed and cells were washed twice with 100 μL assay buffer and replaced with 50 μL assay buffer (HBSS solution containing 10 mM HEPES pH7.4 and 5 mM glucose). […]
The concentration of cAMP (cyclic adenosine monophosphate) in the cell lysate was determined using AlphaScreen™ methodology. […] The AlphaScreen™ signal was measured using an EnVision spectrophotometer (Perkin-Elmer Inc.) with the recommended manufacturer's settings. cAMP concentrations were determined by reference to a calibration curve determined in the same experiment using standard cAMP concentrations. […] Intrinsic Activity was expressed as a fraction relative to the maximum activity determined for formoterol in each experiment. […]

[1] = test system: LPS-induced intra-alveolar neutrophilia; assay: Intra-alveolar neutrophil migration after intratracheal LPS challenge in the CRL:CD rat; type: in vivo
Method: Evaluation of Compound Activity on Intra-Alveolar Neutrophil Migration after Intratracheal Challenge with Lipopolysacharride (LPS) in the CRL:CD Rat
LPS challenge in CRL:CD rats causes an influx of neutrophils into the lungs. Under recoverable gaseous anaesthesia (5% isoflorane in oxygen), rats were dosed via the intratracheal route with vehicle (0.05M phosphate, 0.1% Tween 80, 0.6% saline, pH 6), or compound 30 min before challenge with an intratracheal dose of 10 μg/kg LPS.
The rats (250-400 g) were euthanized 4 hr after LPS challenge with 1 mL pentobarbitone sodium. A tracheotomy was performed and a cannula inserted. The airway was then lavaged using 3 mL Isoton at room temperature. The Isoton (BeckmanCoulter, High Wycombe, UK) was left in the airway for 10 seconds before being removed. The bronchio-alveolar lavage (BAL) fluid containing inflammatory cells was placed into a 15 mL centrifuge tube and kept on ice. This process was repeated three times. An aliquot of BAL fluid was removed and the inflammatory cells were counted on Sysmex (Sysmex UK, Milton Keynes). Neutrophils were expressed in millions/animal (mean ±s.e.mean).

guinea pig trachea = assay: Bronchodilator onset in guinea pig isolated tracheal ring contracted with methacholine
Method: Evaluation of Bronchodilator Activity in the Guinea Pig Isolated Tracheal Ring Preparation
Guinea pigs (300-500 g) were killed by cervical dislocation and the trachea was isolated. The trachea was cut into segments 2-3 cartilage rings in width and suspended in 10 ml organ baths in modified Krebs' solution (mM; NaCl, 90; NaHCO3, 45; KCl, 5; MgSO4.7H2O, 0.5; Na2HPO4.2H2O, 1; CaCl2, 2.25; glucose, 10; pH 7.4) gassed with 5% CO2, 95% […] at 37° C.). The tracheal rings were attached to an isometric force transducer for the measurement of isometric tension. The tissues were washed and a force of 1 g was applied to each tissue. The rings were contracted with methacholine (1 μM). Once the contraction had reached a plateau, vehicle (0.01% DMSO in distilled H2O), compound A (3 nM), roflumilast (1 μM) or a combination of compound A (3 nM) and roflumilast (1 μM) was added and the tissue left until the response had reached a plateau. Data were collected using the Chart 4 software (ADInstruments, Charlgrove, UK). The time to 90% of the maximum effect of the bronchodilator (onset time) was measured and expressed in min (mean ±s.e.mean).

T1 sequence (P07550 whole entry): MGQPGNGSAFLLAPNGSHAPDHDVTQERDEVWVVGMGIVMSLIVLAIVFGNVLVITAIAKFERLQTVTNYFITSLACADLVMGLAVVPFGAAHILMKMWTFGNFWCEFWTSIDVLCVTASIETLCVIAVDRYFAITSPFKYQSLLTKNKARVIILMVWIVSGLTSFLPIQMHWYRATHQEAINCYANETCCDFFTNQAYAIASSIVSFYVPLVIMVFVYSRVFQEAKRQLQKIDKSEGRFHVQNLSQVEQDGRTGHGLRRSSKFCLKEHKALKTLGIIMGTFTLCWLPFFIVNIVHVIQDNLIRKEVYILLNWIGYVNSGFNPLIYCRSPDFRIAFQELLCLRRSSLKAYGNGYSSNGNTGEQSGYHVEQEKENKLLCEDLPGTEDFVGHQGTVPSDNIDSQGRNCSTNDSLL

How did the EC50 (Adrenergic β2; H292 cells, cAMP, 300 μM rolipram, read-out: β2 pEC50 (converted)) turn out when `CCN(CC)CCN(CCNCCc1ccc(O)c2[nH]c(=O)sc12)C(=O)CCOCCc1cccc2ccccc12` [Compound A, N-[2-(Diethylamino)ethyl]-N-(2-{[2-(4-hydroxy-2-oxo-2,3-dihydro-1,3-benzothiazol-7-yl)ethyl]amino}ethyl)-3-[2-(1-naphthyl)ethoxy]propanamide dihydrobromide] was run?
The EC50 was 6.31 nM.

What about the “β2 Int Act” value (Adrenergic β2; Intrinsic Activity as fraction relative to maximum activity of formoterol) of the same molecule?
Its value is 0.8.

What about the inhibition of neutrophilia ([1]; Compound W study, compound A 0.1 μg/kg intratracheal 30 min prior to LPS) of the same molecule?
The inhibition of neutrophilia was 43%.

And the “neutrophils in BAL” value ([1]; Compound W study, compound A 0.1 μg/kg, vehicle/LPS 11±1.8)?
Its value is 5.0±0.70 million/animal.

And the inhibition of neutrophilia ([1]; Compound X study, compound A 0.1 μg/kg intratracheal 30 min prior to LPS)?
The inhibition of neutrophilia was 26%.

And the “neutrophils in BAL” value ([1]; Compound X study, compound A 0.1 μg/kg, vehicle/LPS 12±1.7)?
Its value is 9.1±1.1 million/animal.

And the inhibition of neutrophilia ([1]; budesonide study, compound A 0.2 μg/kg intratracheal 30 min prior to LPS 10 μg/kg, BAL 4 hr)?
Its inhibition of neutrophilia is 45%.

What about the “neutrophils in BAL” value ([1]; budesonide study, compound A 0.2 μg/kg intratracheal, mean ±s.e.mean, vehicle/LPS 14±1.6) of the same molecule?
Its value is 7.8±0.71 million/animal.

What about the “onset time (time to 90% of the maximum effect)” value (guinea pig trachea; Compound A 3 nM in the presence of roflumilast 1 μM) of the same molecule?
Its value is 5.7 ± 1.0 min.

And the “onset time (time to 90% of the maximum effect)” value (guinea pig trachea; compound A 3 nM alone, methacholine 1 μM contraction, mean ±s.e.mean)?
The value was 16 ± 3.0 min.
